# Like-named read-outs stand apart in the source and are kept apart here.
# Experiments:
# Escherichia coli [1] = assay: MIC, micro-dilution broth method (CLSI); type: cell-based; settings: Escherichia coli
# Enterobacter cloacae = assay: MIC, micro-dilution broth method (CLSI); type: cell-based; settings: Enterobacter cloacae, read-out: MIC
# Aqueous solubility limit = type: physicochemical; settings: limit to which compounds were tested in MIC assays
# Escherichia coli [2] = assay: Resistance frequency, large inoculum method; type: cell-based
# Procedure: Selection of resistant mutants. Resistant mutants were selected using the large inoculum method. Briefly, E. coli BW25113, K. pneumoniae ATCC 27736, or E. cloacae ATCC 29893 (˜1.0×10^7 c.f.u.) was plated on 100-mm plates of Luria Bertani agar containing 8, 16, 32, or 64 μg/mL, lolamycin. For E. coli ΔtolC (JW5503), ˜1.0×10^7 c.f.u. was plated on 100-mm plates of Luria Bertani agar containing 0.063, 0.13, 0.25, 0.5 μg/mL lolamycin. Colonies were visible after incubating at 37° C. for 48 h. Resistant colonies were confirmed by growing colonies in selective media with the same concentration of lolamycin.
# [3] = Mouse maximum tolerated dose / tolerability; type: in vivo
# Procedure: Mouse maximum tolerated dose (MTD) of compound 2 and lolamycin. […] In these studies, 10- to 12-week-old female C57BL/6 mice purchased from Charles River Laboratories were used. The maximum tolerated dose (MTD) of a single compound via IP injection was determined first. Compound 2 and lolamycin were formulated in 50% DMSO, 50% PEG400. Compound 2 and lolamycin were given by intraperitoneal (IP) injection. All the mice were monitored for signs of toxicity for 2 weeks. For multiple doses, the compound was given by daily IP injection for 5 consecutive days and the mice were monitored for signs of toxicity for 1 month. The MTD was the highest dosage with acceptable toxicity (for example, <20% weight loss).
# Next, the MTD of lolamycin via oral gavage was determined. Lolamycin was formulated in 20% DMSO, 30% Water, and 50% PEG400. Lolamycin was given via oral gavage. All the mice were monitored for signs of toxicity for 2 weeks. For multiple doses, compound was given twice daily orally for 3 consecutive days and the mice were monitored for signs of toxicity. The MTD was the highest dosage with acceptable toxicity (for example, <20% weight loss). […] The MTD of lolamycin was used to inform the dosing schedule used in subsequent efficacy studies.
# E. coli AR0349 = assay: Bacterial sepsis survival model; type: in vivo, CD-1 mice
# [4] = test system: clinical isolates of E. coli, K. pneumoniae, and E. cloacae; assay: Susceptibility of panel of multidrug-resistant clinical isolates; settings: MDR clinical isolates of E. coli
smiles,measurement,setting,value
"Cc1cc(-c2c[nH]nc2-c2cccc(OCc3cccc(C#N)c3)c2)cc(C)n1 [Compound 12, 3-((3-(4-(2,6-dimethylpyridin-4-yl)-1H-pyrazol-3-yl)phenoxy)methyl)benzonitrile]",MIC,"Escherichia coli [1]; ATCC25922, E. coli ATCC 25922, read-out: MIC",1 µg/mL
same,MIC,"Escherichia coli [1]; ATCCBAA2340, E. coli ATCC BAA-2340, read-out: MIC",2 µg/mL
same,MIC,"Escherichia coli [1]; ATCCBAA2469, E. coli ATCC BAA-2469, read-out: MIC",1 µg/mL
same,MIC,"Escherichia coli [1]; ATCCBAA2471, E. coli ATCC BAA-2471, read-out: MIC",4 µg/mL
same,MIC,"Escherichia coli [1]; E. coli AR0048, read-out: MIC",4 µg/mL
same,MIC,"Escherichia coli [1]; E. coli AR0055, read-out: MIC",2 µg/mL
same,MIC,"Escherichia coli [1]; E. coli AR0058, read-out: MIC",2 µg/mL
same,MIC,"Escherichia coli [1]; E. coli AR0061, read-out: MIC",8 µg/mL
same,MIC,"Escherichia coli [1]; E. coli AR0067, read-out: MIC",2 µg/mL
same,MIC,"Escherichia coli [1]; E. coli AR0069, read-out: MIC",2 µg/mL
same,MIC,"Escherichia coli [1]; E. coli AR0077, read-out: MIC",1 µg/mL
same,MIC,"Escherichia coli [1]; E. coli AR0081, read-out: MIC",2 µg/mL
same,MIC,"Escherichia coli [1]; E. coli AR0084, read-out: MIC",2 µg/mL
same,MIC,"Escherichia coli [1]; E. coli AR0085, read-out: MIC",1 µg/mL
same,MIC,"Escherichia coli [1]; E. coli AR0086, read-out: MIC",0.5 µg/mL
same,MIC,"Escherichia coli [1]; E. coli AR0089, read-out: MIC",2 µg/mL
same,MIC,"Escherichia coli [1]; E. coli AR0104, read-out: MIC",1 µg/mL
same,MIC,"Escherichia coli [1]; E. coli AR0114, read-out: MIC",2 µg/mL
same,MIC,"Escherichia coli [1]; E. coli AR0118, read-out: MIC",1 µg/mL
same,MIC,"Escherichia coli [1]; E. coli AR0119, read-out: MIC",4 µg/mL
same,MIC,"Escherichia coli [1]; E. coli AR0128, read-out: MIC",1 µg/mL
same,MIC,"Escherichia coli [1]; E. coli AR0137, read-out: MIC",2 µg/mL
same,MIC,"Escherichia coli [1]; E. coli AR0149, read-out: MIC",2 µg/mL
same,MIC,"Escherichia coli [1]; E. coli AR0150, read-out: MIC",1 µg/mL
same,MIC,"Escherichia coli [1]; E. coli AR0151, read-out: MIC",2 µg/mL
same,MIC,"Escherichia coli [1]; E. coli AR0162, read-out: MIC",4 µg/mL
same,MIC,"Escherichia coli [1]; E. coli AR0346, read-out: MIC",2 µg/mL
same,MIC,"Escherichia coli [1]; E. coli AR0348, read-out: MIC",2 µg/mL
same,MIC,"Escherichia coli [1]; E. coli AR0350, read-out: MIC",1 µg/mL
same,MIC,"Escherichia coli [1]; E. coli AR0493, read-out: MIC",4 µg/mL
same,MIC,"Escherichia coli [1]; E. coli AR0494, read-out: MIC",4 µg/mL
same,MIC,"Escherichia coli [1]; E. coli AR0495, read-out: MIC",2 µg/mL
same,MIC,"Escherichia coli [1]; E. coli AR0541, read-out: MIC",1 µg/mL
same,MIC,"Escherichia coli [1]; E. coli AR0543, read-out: MIC",4 µg/mL
same,MIC,"Escherichia coli [1]; E. coli AR0546, read-out: MIC",0.5 µg/mL
same,MIC,"Escherichia coli [1]; E. coli AR0551, read-out: MIC",2 µg/mL
same,MIC,"Escherichia coli [1]; E. coli AR0559, read-out: MIC",2 µg/mL
same,MIC,"Escherichia coli [1]; E. coli AR-0349 (colistin-resistant clinical isolate), read-out: MIC",1 µg/mL
same,MIC,"Escherichia coli [1]; E. coli AR-0549, read-out: MIC",2 µg/mL
same,MIC,"Escherichia coli [1]; E. coli ELZ 4004, read-out: MIC",2 µg/mL
same,MIC,"Escherichia coli [1]; E. coli ELZ 4017, read-out: MIC",2 µg/mL
same,MIC,"Escherichia coli [1]; E. coli ELZ 4042, read-out: MIC",4 µg/mL
same,MIC,"Escherichia coli [1]; E. coli ELZ 4072, read-out: MIC",2 µg/mL
same,MIC,"Escherichia coli [1]; E. coli ELZ 4081, read-out: MIC",2 µg/mL
same,MIC,"Escherichia coli [1]; E. coli ELZ 4139, read-out: MIC",8 µg/mL
same,MIC,"Escherichia coli [1]; E. coli ELZ 4239, read-out: MIC",4 µg/mL
same,MIC,"Escherichia coli [1]; E. coli ELZ 4277, read-out: MIC",2 µg/mL
same,MIC,"Escherichia coli [1]; E. coli ELZ 4346, read-out: MIC",2 µg/mL
same,MIC,Escherichia coli [1]; E. coli ΔrfaC JW3596 (permeability mutant),0.06 µg/mL
same,MIC,Escherichia coli [1]; E. coli ΔtolC JW5503 (efflux-deficient),0.008 µg/mL
same,MIC,"Enterobacter cloacae; ATCC29893, E. cloacae ATCC 29893",4 µg/mL
same,MIC,"Enterobacter cloacae; ATCCBAA2341, E. cloacae ATCC BAA-2341",16 µg/mL
same,MIC,"Enterobacter cloacae; ATCCBAA2468, E. cloacae ATCC BAA-2468",4 µg/mL
same,MIC,Enterobacter cloacae; E. cloacae AR0032,2 µg/mL
same,MIC,Enterobacter cloacae; E. cloacae AR0038,8 µg/mL
same,MIC,Enterobacter cloacae; E. cloacae AR0050,0.5 µg/mL
same,MIC,Enterobacter cloacae; E. cloacae AR0053,4 µg/mL
same,MIC,Enterobacter cloacae; E. cloacae AR0060,1 µg/mL
same,MIC,Enterobacter cloacae; E. cloacae AR0065,1 µg/mL
same,MIC,Enterobacter cloacae; E. cloacae AR0072,4 µg/mL
same,MIC,Enterobacter cloacae; E. cloacae AR0073,16 µg/mL
same,MIC,Enterobacter cloacae; E. cloacae AR0093,2 µg/mL
same,MIC,Enterobacter cloacae; E. cloacae AR0132,1 µg/mL
same,MIC,Enterobacter cloacae; E. cloacae AR0136,4 µg/mL
same,MIC,Enterobacter cloacae; E. cloacae AR0154,0.25 µg/mL
same,MIC,Enterobacter cloacae; E. cloacae AR0164,2 µg/mL
same,MIC,Enterobacter cloacae; E. cloacae AR0544,4 µg/mL
same,MIC,Enterobacter cloacae; E. cloacae AR0545,1 µg/mL
same,MIC,Enterobacter cloacae; E. cloacae AR-0163,8 µg/mL
same,solubility,Aqueous solubility limit; aqueous medium (not further specified),128 µg/mL
same,solubility,Aqueous solubility limit,128 µg/mL
same,resistance frequency,"Escherichia coli [2]; E. coli ΔtolC JW5503, 32×MIC",1.8×10^−8
same,resistance frequency,"Escherichia coli [2]; wild-type E. coli BW25113, 8×MIC",3.4×10^−7
same,tolerability,"[3]; C57BL/6 mice, daily dosing of 200 mg/kg for 5 consecutive days, IP",well tolerated
same,tolerability,"[3]; C57BL/6 mice, single dose of 200 mg/kg, IP",well tolerated
same,tolerability,"[3]; mice, 100 mg/kg twice a day for three days, IP",well-tolerated
same,tolerability,"[3]; mice, 200 mg/kg twice a day for three days, oral gavage, listed as Lolamycin, 200 mg/kg",well tolerated
same,tolerability,"[3]; mice, 200 mg/kg twice a day for three days, oral gavage, listed as lolamycin, 200 mg/kg",well-tolerated
same,mice with septic infection rescued (survival),E. coli AR0349; 100 mg/kg IP twice daily for 3 days,100%
same,mice with septic infection rescued (survival),E. coli AR0349; 200 mg/kg PO twice daily for 3 days,over 70%
same,concentration that kills 50% of the strains,[4],~2 µg/mL
same,concentration that kills 90% of the strains,[4],~8 µg/mL

# Source: US20250051300A1, “GRAM-NEGATIVE SPECIFIC ANTIBIOTICS SPARING EFFECT ON GUT MICROBIOME” (THE BOARD OF TRUSTEES OF THE UNIVERSITY OF ILLINOIS, priority 2021, published 2025)
